# Measured values as given in US10174067B2, “Type of cytidine derivative and application thereof” (priority 2014, dated 2019).
# Details: Day 22; single IP dose (mg/kg)
# Method: To determine the growth inhibition effect and toxicity of the cytidine derivative samples of the present invention on the transplanted tumor of nude mice bearing colon cancer HCT-116.
# The corresponding amount of test substance was taken in a 5 mL glass tube and dissolved in ethanol with a 5 mm magnetic stirrer for stirring. After dissolving completely, Cremophor EL was added with continuous stirring. The marked amount of saline was added and mixed evenly before use. The volume ratio of ethanol, Cremophor EL, and physiological saline was 5:5:90.
# Varieties and lines; Balb/c Nude mice; level: SPF; sex: female.
# 4.2 Animal inoculation and grouping: Each nude mouse was inoculated subcutaneously with 0.1 mL of cell suspension (3×10^6 cell/mouse) at right side of hind limb in a sterile stale. When the tumor grew to about 60-150 mm^3, the nude mice with similar tumor volume and desirable shape were selected (it would be better to select single spherical shape, no irregular shape or multiple tumors grouped together) for grouping, 6 mice a group. The grouping is as follows:
# The control group, namely the model control group, was injected with a mixture of ethanol, Cremophor EL, and saline (5:5:90).
# Those mice were weighed three times a week.
# All clinical symptoms of each animal should be recorded at the beginning of the test and during the test. The observations should be made at the same time each day.
# An animal would be killed by CO2 when its weight loss was more than 20%, when it was about to die, or when its tumor volume exceeded 2800 mm^3. The tumor was separated and weighed, and the animal was autopsied and observed to evaluate and record whether there were pathological changes in the organs.
# The data were expressed as Mean±SEM unless specially provided; Non-pairing T test was performed for the data between the two groups. P<0.05 was considered as significant difference.
structure (smiles),measurement,value
"Cl.Nc1ccn([C@@H]2O[C@H](CO)[C@@H](O)C2(F)F)c(=O)n1 [Compound G1, 2′deoxy-2′,2′-difluorocytidine hydrochloride, reference compound]",Day 22 Mortality,100%
